Consider 40 compounds from US11802133B2, “Heterocyclic compounds as monoacylglycerol lipase inhibitors” (Hoffmann-La Roche Inc., priority 2018, dated 2023).

The target in this experiment is MAGL (Homo sapiens (Human), UniProt Q99685). Description: 2-AG assay: MAGL inhibitory activity by hydrolysis of 2-arachidonoylglycerol to arachidonic acid (mass spectrometry). It is filed as biochemical. As to conditions: measured in 2-AG assay (footnote [b]); 8 μM 2-arachidonoylglycerol. Here is the method:
Alternatively, compounds were profiled for MAGL inhibitory activity by determining the enzymatic activity by following the hydrolysis of the natural substrate 2-arachidonoylglycerol resulting in arachidonic acid, which can be followed by mass spectrometry. This assay is hereinafter abbreviated “2-AG assay”.
A C18 SPE cartridge (G9205A) was used in an acetonitrile/water liquid setup. […] The activity of the compounds was calculated based on the ratio of intensities [arachidonic acid/d8-arachidonic acid].

Sequence of MAGL (Q99685 whole entry, species assumed): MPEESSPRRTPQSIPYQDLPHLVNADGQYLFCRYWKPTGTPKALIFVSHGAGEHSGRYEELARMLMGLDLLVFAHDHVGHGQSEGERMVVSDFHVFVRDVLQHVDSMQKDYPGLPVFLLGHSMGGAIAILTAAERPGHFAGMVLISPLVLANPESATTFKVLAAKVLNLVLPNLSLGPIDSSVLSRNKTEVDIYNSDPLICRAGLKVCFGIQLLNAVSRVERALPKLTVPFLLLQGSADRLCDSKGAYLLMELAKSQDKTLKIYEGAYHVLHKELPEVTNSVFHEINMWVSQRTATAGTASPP

As usually defined, the IC50 is the midpoint of a concentration-inhibition curve. Higher therefore signals weaker potency. The compound `O=C1CO[C@H]2CCN(C(=O)N3CCC(Oc4ccc(C(F)(F)F)c(-n5cccn5)c4)CC3)C[C@H]2N1` [Example 209] had an IC50 of 74 nM.
`O=C1CO[C@H]2CCN(C(=O)N3CCC(Oc4ccc(Cl)cc4)CC3)C[C@H]2N1` [Example 210] yielded an IC50 of 80 nM.
In turn, `O=C1CO[C@H]2CCN(C(=O)N3CCC(Cc4c(F)cc(C(F)(F)F)cc4F)CC3)C[C@H]2N1` [Example 211] came in with an IC50 of 17 nM.
As for `O=C1CO[C@H]2CCN(C(=O)N3CCC(Oc4ccc(Cl)c(-c5ccc(Cl)cc5)c4F)CC3)C[C@H]2N1` [Example 212], the concentration for half-maximal inhibition (IC50) was 3 nM.
The value for `O=C1CO[C@H]2CCN(C(=O)N3CC(Oc4ccc(C(F)(F)F)cc4Cl)C3)C[C@H]2N1` [Example 213] was 98 nM; that for `Cc1ccc(COC2CN(C(=O)N3CC[C@@H]4OCC(=O)N[C@@H]4C3)C2)c(C(F)(F)F)c1` [Example 217] was 10 nM; that for `COc1cccc(C(F)(F)F)c1CCC1CN(C(=O)N2CC[C@@H]3OCC(=O)N[C@@H]3C2)C1` [Example 218] was 3 nM.
Compound `Cc1ccc(CCC2CN(C(=O)N3CC[C@@H]4OCC(=O)N[C@@H]4C3)C2)c(C(F)(F)F)c1` [Example 219] displayed an IC50 of 2 nM. Compared with the last compound, the IC50 is about 1.5-fold lower.
Compound `CC(=O)c1cc(C(F)(F)F)ccc1CCC1CN(C(=O)N2CC[C@@H]3OCC(=O)N[C@@H]3C2)C1` [Example 220] yielded an IC50 of 3 nM.
As to `O=C1CO[C@H]2CCN(C(=O)N3CC(COc4cc(C(F)(F)F)cc(F)n4)C3)C[C@H]2N1` [Example 222, (4aR,8aS)-6-[3-[[6-Fluoro-4-(trifluoromethyl)-2-pyridyl]oxymethyl]azetidine-1-carbonyl]-4,4a,5,7,8,8a-hexahydropyrido[4,3-b][1,4]oxazin-3-one], 143 nM corresponded to half-maximal inhibition (IC50). This IC50 is about 48-fold higher than that of the compound before.
As for `O=C1CO[C@H]2CCN(C(=O)N3CC(COc4ccc(C(F)(F)F)c(F)n4)C3)C[C@H]2N1` [Example 223, (4aR,8aS)-6-[3-[[6-Fluoro-5-(trifluoromethyl)-2-pyridyl]oxymethyl]azetidine-1-carbonyl]-4,4a,5,7,8,8a-hexahydropyrido[4,3-b][1,4]oxazin-3-one], the figure is 75 nM; as for `O=C1CO[C@H]2CCN(C(=O)N3CC(OCc4ccc(Cl)c(Cl)c4)C3)C[C@H]2N1` [Example 224], 3 nM.
The value for `O=C1CO[C@H]2CCN(C(=O)N3CC(OCc4cc(Cl)ccc4Cl)C3)C[C@H]2N1` [Example 225] was 7 nM.
As for `O=C1CO[C@H]2CCN(C(=O)N3CC(OCc4ccc(C(F)(F)F)cn4)C3)C[C@H]2N1` [Example 230], the figure is 73 nM; as for `Cc1cc(OC[C@@H]2CCN(C(=O)N3CC[C@@H]4OCC(=O)N[C@@H]4C3)C[C@@H]2C)cnc1C(F)(F)F` [Example 231], 5 nM.
For the compound `Cc1cc(OC[C@H]2CCN(C(=O)N3CC[C@@H]4OCC(=O)N[C@@H]4C3)C[C@H]2C)cnc1C(F)(F)F` [Example 232], the IC50 turned out to be 61 nM.
`O=C1CO[C@H]2CCN(C(=O)N3CC(OCc4cc(C(F)(F)F)c(C(F)(F)F)cn4)C3)C[C@H]2N1` [Example 234] had an IC50 of 2 nM. This IC50 is about 30-fold lower than that of the compound before.
The value for `O=C1CO[C@H]2CCN(C(=O)N3CC(OCc4ccc(S(F)(F)(F)(F)F)cc4F)C3)C[C@H]2N1` [Example 240] was 16 nM.
As for `O=C1CO[C@H]2CCN(C(=O)N3CC(OCC4(c5ccc(Cl)cc5Cl)CC4)C3)C[C@H]2N1` [Example 241], the IC50 is 15 nM.
As for `O=C1CO[C@H]2CCN(C(=O)N3CC(OCc4cc(C(F)(F)F)cc(Oc5ccc(F)cc5)n4)C3)C[C@H]2N1` [Example 242], the figure is 12 nM; as for `O=C1CO[C@H]2CCN(C(=O)N3CC(OCc4ccc(C(F)(F)F)c(Oc5ccc(F)cc5)n4)C3)C[C@H]2N1` [Example 243], 10 nM.
The value for `O=C1CO[C@H]2CCN(C(=O)N3CC(OCc4nc(-c5ccc(F)cc5)cs4)C3)C[C@H]2N1` [Example 244] was 30 nM; that for `O=C1CO[C@H]2CCN(C(=O)N3CCC(OCc4ccc(C(F)(F)F)cc4F)(C(F)(F)F)C3)C[C@H]2N1` (stereo partly shown) [Example 245] was 1700 nM.
`CC1C(Oc2cc(C(F)(F)F)ccc2Br)CCN1C(=O)N1CC[C@@H]2OCC(=O)N[C@@H]2C1` (stereo partly shown) [Example 246] displayed an IC50 of 1000 nM.
As for `C[C@@H]1[C@@H](Oc2cc(C(F)(F)F)ccc2Br)CCN1C(=O)N1CC[C@@H]2OCC(=O)N[C@@H]2C1` [Example 247], the figure is 1100 nM; as for `C[C@H]1[C@H](Oc2cc(C(F)(F)F)ccc2Br)CCN1C(=O)N1CC[C@@H]2OCC(=O)N[C@@H]2C1` [Example 248], 607 nM.
As for `O=C1CO[C@H]2CCN(C(=O)N3CC(OCc4ccc(C(F)(F)F)cc4C(F)(F)F)C3)C[C@H]2N1` [Example 249], the figure is 5 nM.
With `Cc1c(COC2CN(C(=O)N3CC[C@@H]4OCC(=O)N[C@@H]4C3)C2)cccc1C(F)(F)F` [Example 250], the midpoint of inhibition, the IC50, lay at 8 nM.
As for `Cc1cc(OC(F)(F)F)ccc1COC1CN(C(=O)N2CC[C@@H]3OCC(=O)N[C@@H]3C2)C1` [Example 251], the figure is 5 nM; as for `Cc1cc(OC(F)(F)F)ccc1COC1CN(C(=O)N2CC[C@@H]3OCC(=O)N[C@@H]3C2)C1C` (stereo partly shown) [Example 252], 5 nM.
The value for `Cc1c(COC2CN(C(=O)N3CC[C@@H]4OCC(=O)N[C@@H]4C3)C2C)cccc1C(F)(F)F` (stereo partly shown) [Example 253] was 10 nM; that for `O=C1CO[C@H]2CCN(C(=O)N3CCC(Oc4ccc(C(F)(F)F)cc4F)CC3)C[C@H]2N1` [Example 254] was 64 nM; that for `O=C1CO[C@H]2CCN(C(=O)N3CCC(Oc4ccc(C(F)(F)F)c(Cl)c4)CC3)C[C@H]2N1` [Example 255] was 10 nM.
As for `O=C1CO[C@H]2CCN(C(=O)N3CC(Oc4ccc(Cl)c(C5CC5)c4)C3)C[C@H]2N1` [Example 256], the figure is 11 nM; as for `O=C1CO[C@H]2CCN(C(=O)N3CCC(Oc4cccc(C(F)(F)F)c4Cl)CC3)C[C@H]2N1` [Example 257], 14 nM; as for `O=C1CO[C@H]2CCN(C(=O)N3CC(Oc4cccc(Br)c4Cl)C3)C[C@H]2N1` [Example 258], 48 nM.
On to `O=C1CO[C@H]2CCN(C(=O)N3CC(Oc4cccc(C5CC5)c4Cl)C3)C[C@H]2N1` [Example 259], for which the IC50 came to 15 nM.
The value for `O=C1CO[C@H]2CCN(C(=O)N3CC(Oc4ccc(C(F)(F)F)c(C5CC5)c4)C3)C[C@H]2N1` [Example 260] was 18 nM; that for `O=C1CO[C@H]2CCN(C(=O)N3CC(Oc4ccc(C(F)(F)F)c(Cl)c4)C3)C[C@H]2N1` [Example 261] was 48 nM; that for `N#Cc1cc(OC2CCN(C(=O)N3CC[C@@H]4OCC(=O)N[C@@H]4C3)CC2)ccc1C(F)(F)F` [Example 262] was 181 nM.
